Laboratory results as given in patent US4375478A, “Aminobenzoic acid derivatives” (Abbott Laboratories, priority 1982, dated 1983).

How the values were obtained:
gerbils = test: Plasma lipoprotein effects in gerbils; assay type: in vivo, gerbil; conditions: for HDL-C, Before Test / LDL-C plus VLDL-C, Before Test / Total Cholesterol, Before Test / HDL-C, After Test / LDL-C plus VLDL-C, After Test / Total Cholesterol, After Test / HDL-C, Percent Change / LDL-C plus VLDL-C, Percent Change / Total Cholesterol, Percent Change: gerbil plasma; for HDL-C, Before Test / LDL-C plus VLDL-C, Before Test / Total Cholesterol, Before Test: baseline before dosing; for HDL-C, Percent Change / LDL-C plus VLDL-C, Percent Change / Total Cholesterol, Percent Change: p 0.05
Procedure: Test compounds were suspended in 0.1% methylcellulose in isotonic saline at a concentration such that the desired dose was given in a volume of 4.0 ml/kg.
On the day before initiation of the experiment and on the day before the last dose, food was removed from the gerbils in the early evening, and at 9 a.m. the next day the animals were bled by heart puncture (0.5 ml) after light ether anesthesia; the animals were dosed approximately 2 hours after bleeding on Day 0 and 2 hours before bleeding on the last dosing day. The blood sample was mixed with a solution of EDTA, 50 mg/ml at pH 7.4, so that the final concentration was 1.5 mg/ml. After swirling, the contents were centrifuged at 1500×g for 10 minutes at 5° C. The plasma was removed from the packed cells and a portion was analyzed for cholesterol utilizing the ABA-100 and A-GENT cholesterol reagent. To 0.100 ml of another portion of plasma was added 0.010 ml of Mg^+2 -phosphotungstate reagent (prepared daily by adding one part of MgCl2, 1.5 M, and 4 parts of sodium phosphotungstate, 4%, adjusted to pH 7.4 with 1.0 N NaOH. The mixture was vortexed and allowed to remain at room temperature for 5 minutes. The sample was centrifuged at 100,000×g for 5 minutes and an aliquot of supernatant analyzed for HDL cholesterol (HDL-C). The difference between total plasma cholesterol and HDL-C (after correction for dilution) was utilized as an estimate of low density plus very low density lipoprotein cholesterol (LDL-C plus VLDL-C). Animals were treated for 5 days in the first experiment and for 4 days in the second.
Controls and test compounds were evaluated in groups of 12 gerbils. The significance of the changes in the plasma parameters was evaluated by a paired t-test; tests of hypothesis were performed at the 0.05 significance level.

[1] = Solubility in the ACAT incubation medium with ethanol; assay type: physicochemical; conditions: 1% alcohol, 1.0×10^-4 M
Procedure: The plate was developed in a hexane:diethyl ether:acetic acid solution (90:10:1) and the cholesterol oleate area was visualized with iodine vapor. The cholesterol oleate spot (Rf=0.70) was scraped from the plate and counted in Packard Scinto Liquid. Samples were run in triplicate, and percent inhibition was calculated utilizing controls with sample solvent only. Compounds were dissolved in ethanol, and the final concentration in the incubation medium was 1.0% in the first experiment and 2.5% in the second.

[2] = system: acyl-coenzyme A:cholesterol acyl transferase (ACAT); test: Acyl-coenzyme A:cholesterol acyl transferase (ACAT) assay in vitro, liver microsomal protein, cholesterol oleate formation; assay type: biochemical; conditions: for ACAT inhibition: 1.0×10^-4 M; for Cholesterol Oleate CPM + S.D. / Cholesterol Oleate Inhibition Percent: 1.0 × 10^-4 M, Ethanol
Procedure: Test Compound (final concentration=1.0×10^-4 M) and 120 mcg of liver microsomal protein were preincubated for 5 minutes at 37° C. in 0.1 M phosphate buffer, pH 7.4, containing 6.0×10^-5 M bovine serum albumin and 0.002 M dithiothreitol (final volume=0.189 ml). Oleoyl-1-^14 C-coenzyme A, dissolved in buffer, was added in a volume of 0.011 ml so that the final concentration was 6.0×10^-5 M at a specific activity of 10.8 mCi/mmol (0.11 u Ci/tube). After incubation at 37° C. for 10 minutes, the reaction was stopped with the addition of 4.0 ml of chloroform:methanol at a ratio of 2:1 (C-M). The mixture was shaken after the addition of 0.84 ml of water, and the organic layer was evaporated to dryness. The aqueous phase was extracted again with 4.0 ml of C-M and the organic layer added to the dried residue of the first extractant. After evaporation, the residue was taken up in 0.040 ml of toluene:chloroform (4:1) and 0.020 ml were spotted on a Silica Gel-G TLC plate, 250 u thickness.

[3] = system: acyl-coenzyme A:cholesterol acyl transferase (ACAT); conditions: 1.0×10^-4 M; cited from earlier work
[4] = 100 mg/kg, five days, ± standard deviation
[5] = 100 mg/kg, five days, significant difference
[6] = 123 mg/kg, four days, significant difference
[7] = 100 mg/kg, four days, no significant difference
[8] = 1% alcohol (first value of the pair)
[9] = 2.5% alcohol (second value of the pair)

## CCCCCCCCCCCCCCCCNc1c(Cl)cc(C(=O)O)cc1Cl [Compound B, Sodium (3,5-dichloro-4-hexadecylamino)benzoate]
gerbils; [4]
  HDL-C, Before Test: 51.7 ± 11.1 mg/dL
  LDL-C plus VLDL-C, Before Test: 44.8 ± 7.1 mg/dL
  Total Cholesterol, Before Test: 96.6 ± 12.9 mg/dL
  HDL-C, After Test: 42.0 ± 7.0 mg/dL
  LDL-C plus VLDL-C, After Test: 35.8 ± 6.0 mg/dL
  Total Cholesterol, After Test: 77.7 ± 12.3 mg/dL
gerbils; [5]
  HDL-C, Percent Change: -19%
  LDL-C plus VLDL-C, Percent Change: -20%
  Total Cholesterol, Percent Change: -20%
gerbils; 123 mg/kg, four days
  HDL-C, After Test: 48.8 ± 9.7 mg/dL
  LDL-C plus VLDL-C, After Test: 32.1 ± 8.8 mg/dL
  Total Cholesterol, After Test: 81.0 ± 10.2 mg/dL
  HDL-C, Before Test: 53.7 ± 9.9 mg/dL
  LDL-C plus VLDL-C, Before Test: 42.9 ± 16.8 mg/dL
  Total Cholesterol, Before Test: 96.6 ± 20.3 mg/dL
gerbils; [6]
  HDL-C, Percent Change: -9%
  LDL-C plus VLDL-C, Percent Change: -25%
  Total Cholesterol, Percent Change: -10%
gerbils; gerbils, groups of 12, four days, 123 mg/kg
  animal deaths in the group: One animal died

## CCCCCCCCCCCCCCCCNc1ccc(C(=O)[O-])cc1.[Na+]
[1]
  solubility in incubation medium: not completely soluble
gerbils; 100 mg/kg, four days
  HDL-C, After Test: 45.1 ± 3.8 mg/dL
  LDL-C plus VLDL-C, After Test: 44.9 ± 10.6 mg/dL
  Total Cholesterol, After Test: 90.0 ± 11.7 mg/dL
  HDL-C, Before Test: 47.1 ± 13.4 mg/dL
  LDL-C plus VLDL-C, Before Test: 45.9 ± 15.3 mg/dL
  Total Cholesterol, Before Test: 93.0 ± 13.3 mg/dL
gerbils; [7]
  HDL-C, Percent Change: -4%
  LDL-C plus VLDL-C, Percent Change: -2%
  Total Cholesterol, Percent Change: -3%
[2]; [8]
  ACAT inhibition: 26%
[2]; [9]
  ACAT inhibition: 45%
[2]; 1%
  Cholesterol Oleate CPM + S.D.: 1917 ± 33 CPM
  Cholesterol Oleate Inhibition Percent: 26%
[2]; 2.5%
  Cholesterol Oleate CPM + S.D.: 735 ± 187 CPM
  Cholesterol Oleate Inhibition Percent: 45%

## CC(=O)[C@H]1CC[C@H]2[C@@H]3CCC4=CC(=O)CC[C@]4(C)[C@H]3CC[C@]12C [Progesterone]
[3]
  ACAT inhibition, literature value of the reference standard: 60%
[2]; [8]
  ACAT inhibition: 84%
[2]; [9]
  ACAT inhibition: 74%
[2]; 1%
  Cholesterol Oleate CPM + S.D.: 891 ± 555 CPM
  Cholesterol Oleate Inhibition Percent: 65%
[2]; 2.5%
  Cholesterol Oleate CPM + S.D.: 453 ± 61 CPM
  Cholesterol Oleate Inhibition Percent: 66%
[2]; at both alcohol concentrations (1% and 2.5%)
  ACAT inhibition: 65-66%
